Experiments:
rice flat sedge = assay: Test Example 3: herbicidal effect by foliage application, Wagner pot (Table 18, symbol E); assay type: in vivo, rice flat sedge (Cyperus iria); conditions: amount of applied herbicide 320 g/ha
In short: (§1)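 Plants were sown in alluvial soil held under 0.1–0.5 cm standing water and grown 14 days in a greenhouse at 25–30 °C. An emulsifiable formulation, water-diluted to the set dose, was then sprayed onto the foliage, and effects were scored three weeks later using previously defined criteria.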

Japanese bulrush = assay: Test Example 1: herbicidal activity, application before weed generation under submerged conditions (Table 16, symbol B); assay type: in vivo, Japanese bulrush (Schoenoplectus juncoides); conditions: amount of applied herbicide 320 g/ha
In short: (§2)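 Alluvial soil was flooded to 4 cm depth, weed seeds were sown mixed and 2.5-leaf rice seedlings were transplanted. On sowing day, the compound's emulsion, diluted in water to a set dose, was applied to the water surface. Plants grew at 25–30 °C and were scored 0–5 after three weeks.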

windgrass [1] = assay: Test Example 4: herbicidal effect by soil treatment (Table 19, symbol L); assay type: in vivo, windgrass (Apera spica-venti); conditions: amount of applied herbicide 320 g/ha
In short: (§3)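 Three weeks of greenhouse growth at 25° C. to 30° C. followed a uniform surface spray of water-diluted emulsion at a predetermined herbicide amount. Seeds had been sown beforehand under about 1.5 cm of sterilized diluvial soil. Grading followed criteria set out in an earlier test.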

velvetleaf [2] = assay: Test Example 4: herbicidal effect by soil treatment (Table 19, symbol M); assay type: in vivo, velvetleaf (Abutilon theophrasti); conditions: amount of applied herbicide 320 g/ha
In short: as §3

Italian ryegrass = assay: Test Example 4: herbicidal effect by soil treatment (Table 19, symbol K); assay type: in vivo, Italian ryegrass (Lolium multiflorum); conditions: amount of applied herbicide 320 g/ha
In short: as §3

barnyard grass [3] = assay: Test Example 5: herbicidal effect by foliage application, plastic box (Table 20, symbol H); assay type: in vivo, barnyard grass (Echinochloa crus-galli); conditions: foliage application, 320 g/ha, three weeks after application
In short: (§4)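 Plants sown in sterilized diluvial soil and grown 14 days in a greenhouse at 25° C to 30° C, then sprayed on the foliage with the compound's emulsion diluted in water to a predetermined herbicide amount. Injury to weeds and crops scored three weeks after application on a visual rating scale.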

barnyard grass [4] = assay: Test Example 3: herbicidal effect by foliage application, Wagner pot (Table 18, symbol H); assay type: in vivo, barnyard grass (Echinochloa crus-galli); conditions: amount of applied herbicide 320 g/ha
In short: as §1

wild oat = assay: Test Example 5: herbicidal effect by foliage application, plastic box (Table 20, symbol I); assay type: in vivo, wild oat (Avena fatua); conditions: foliage application, 320 g/ha, three weeks after application
In short: as §4

southern crabgrass [5] = assay: Test Example 5: herbicidal effect by foliage application, plastic box (Table 20, symbol F); assay type: in vivo, southern crabgrass (Digitaria ciliaris); conditions: foliage application, 320 g/ha, three weeks after application
In short: as §4

late watergrass = assay: Test Example 1: herbicidal activity, application before weed generation under submerged conditions (Table 16, symbol A); assay type: in vivo, late watergrass (Echinochloa oryzicola); conditions: amount of applied herbicide 320 g/ha
In short: as §2

southern crabgrass [6] = assay: Test Example 4: herbicidal effect by soil treatment (Table 19, symbol F); assay type: in vivo, southern crabgrass (Digitaria ciliaris); conditions: amount of applied herbicide 320 g/ha
In short: as §3

redroot pigweed = assay: Test Example 5: herbicidal effect by foliage application, plastic box (Table 20, symbol N); assay type: in vivo, redroot pigweed (Amaranthus retroflexus); conditions: foliage application, 320 g/ha, three weeks after application
In short: as §4

windgrass [7] = assay: Test Example 5: herbicidal effect by foliage application, plastic box (Table 20, symbol L); assay type: in vivo, windgrass (Apera spica-venti); conditions: foliage application, 320 g/ha, three weeks after application
In short: as §4

persian speedwell = assay: Test Example 4: herbicidal effect by soil treatment (Table 19, symbol R); assay type: in vivo, Persian speedwell (Veronica persica); conditions: amount of applied herbicide 320 g/ha
In short: as §3

velvetleaf [8] = assay: Test Example 5: herbicidal effect by foliage application, plastic box (Table 20, symbol M); assay type: in vivo, velvetleaf (Abutilon theophrasti); conditions: foliage application, 320 g/ha, three weeks after application
In short: as §4

blackgrass = assay: Test Example 5: herbicidal effect by foliage application, plastic box (Table 20, symbol J); assay type: in vivo, blackgrass (Alopecurus myosuroides); conditions: foliage application, 320 g/ha, three weeks after application
In short: as §4

green foxtail [9] = assay: Test Example 4: herbicidal effect by soil treatment (Table 19, symbol G); assay type: in vivo, green foxtail (Setaria viridis); conditions: amount of applied herbicide 320 g/ha
In short: as §3

green foxtail [10] = assay: Test Example 5: herbicidal effect by foliage application, plastic box (Table 20, symbol G); assay type: in vivo, green foxtail (Setaria viridis); conditions: foliage application, 320 g/ha, three weeks after application
In short: as §4

Structure (SMILES)	herbicidal effect on E: rice flat sedge (rice flat sedge)	Herbicidal effect, B: Japanese bulrush (Japanese bulrush)	herbicidal effect, L: windgrass (windgrass [1])	herbicidal effect, M: velvetleaf (velvetleaf [2])	herbicidal effect, K: Italian ryegrass (Italian ryegrass)	H: barnyard grass, herbicidal effect grade (barnyard grass [3])	herbicidal effect on H: barnyard grass (barnyard grass [4])	I: wild oat, herbicidal effect grade (wild oat)	F: southern crabgrass, herbicidal effect grade (southern crabgrass [5])	Herbicidal effect, A: late watergrass (late watergrass)	herbicidal effect, F: southern crabgrass (southern crabgrass [6])	N: redroot pigweed, herbicidal effect grade (redroot pigweed)	L: windgrass, herbicidal effect grade (windgrass [7])	herbicidal effect, R: persian speedwell (persian speedwell)	M: velvetleaf, herbicidal effect grade (velvetleaf [8])	J: blackgrass, herbicidal effect grade (blackgrass)	herbicidal effect, G: green foxtail (green foxtail [9])	G: green foxtail, herbicidal effect grade (green foxtail [10])
CCCC(=O)Oc1c(C)nn(C)c(=O)c1-c1c(-c2ccc(F)cc2OC)sc2cc(F)ccc12 [3-010]	4 (Herbicidal rate of 70% or more and less than 90%)	4 (Herbicidal rate of 70% or more and less than 90%)	4 (Herbicidal rate of 70% or more and less than 90%)	0 (Herbicidal rate of 5% or less (almost no effect))	4 (Herbicidal rate of 70% or more and less than 90%)	5 (Herbicidal rate of 90% or more (almost completely withered))	5 (Herbicidal rate of 90% or more (almost completely withered))	5 (Herbicidal rate of 90% or more (almost completely withered))	3 (Herbicidal rate of 40% or more and less than 70%)	5 (Herbicidal rate of 90% or more (almost completely withered))	3 (Herbicidal rate of 40% or more and less than 70%)	5 (Herbicidal rate of 90% or more (almost completely withered))	5 (Herbicidal rate of 90% or more (almost completely withered))	5 (Herbicidal rate of 90% or more (almost completely withered))	5 (Herbicidal rate of 90% or more (almost completely withered))	5 (Herbicidal rate of 90% or more (almost completely withered))	3 (Herbicidal rate of 40% or more and less than 70%)	5 (Herbicidal rate of 90% or more (almost completely withered))
CCOc1cc(F)ccc1-c1sc2cc(F)ccc2c1-c1c(O)c(C)nn(C)c1=O [3-011]	5 (Herbicidal rate of 90% or more (almost completely withered))	4 (Herbicidal rate of 70% or more and less than 90%)	5 (Herbicidal rate of 90% or more (almost completely withered))	4 (Herbicidal rate of 70% or more and less than 90%)	3 (Herbicidal rate of 40% or more and less than 70%)	5 (Herbicidal rate of 90% or more (almost completely withered))	5 (Herbicidal rate of 90% or more (almost completely withered))	5 (Herbicidal rate of 90% or more (almost completely withered))	5 (Herbicidal rate of 90% or more (almost completely withered))	5 (Herbicidal rate of 90% or more (almost completely withered))	5 (Herbicidal rate of 90% or more (almost completely withered))	5 (Herbicidal rate of 90% or more (almost completely withered))	5 (Herbicidal rate of 90% or more (almost completely withered))	4 (Herbicidal rate of 70% or more and less than 90%)	5 (Herbicidal rate of 90% or more (almost completely withered))	5 (Herbicidal rate of 90% or more (almost completely withered))	5 (Herbicidal rate of 90% or more (almost completely withered))	5 (Herbicidal rate of 90% or more (almost completely withered))
CCCC(=O)Oc1c(C)nn(C)c(=O)c1-c1c(-c2ccc(F)cc2OCC)sc2cc(F)ccc12 [3-012]	5 (Herbicidal rate of 90% or more (almost completely withered))	5 (Herbicidal rate of 90% or more (almost completely withered))	5 (Herbicidal rate of 90% or more (almost completely withered))	0 (Herbicidal rate of 5% or less (almost no effect))	3 (Herbicidal rate of 40% or more and less than 70%)	5 (Herbicidal rate of 90% or more (almost completely withered))	5 (Herbicidal rate of 90% or more (almost completely withered))	5 (Herbicidal rate of 90% or more (almost completely withered))	5 (Herbicidal rate of 90% or more (almost completely withered))	5 (Herbicidal rate of 90% or more (almost completely withered))	3 (Herbicidal rate of 40% or more and less than 70%)	5 (Herbicidal rate of 90% or more (almost completely withered))	5 (Herbicidal rate of 90% or more (almost completely withered))	5 (Herbicidal rate of 90% or more (almost completely withered))	5 (Herbicidal rate of 90% or more (almost completely withered))	5 (Herbicidal rate of 90% or more (almost completely withered))	3 (Herbicidal rate of 40% or more and less than 70%)	4 (Herbicidal rate of 70% or more and less than 90%)
Cc1nn(C)c(=O)c(-c2c(-c3ccc4c(c3)OCCO4)sc3cc(F)ccc23)c1O [3-013]	5 (Herbicidal rate of 90% or more (almost completely withered))	3 (Herbicidal rate of 40% or more and less than 70%)	0 (Herbicidal rate of 5% or less (almost no effect))	3 (Herbicidal rate of 40% or more and less than 70%)	0 (Herbicidal rate of 5% or less (almost no effect))	3 (Herbicidal rate of 40% or more and less than 70%)	4 (Herbicidal rate of 70% or more and less than 90%)	0 (Herbicidal rate of 5% or less (almost no effect))	4 (Herbicidal rate of 70% or more and less than 90%)	3 (Herbicidal rate of 40% or more and less than 70%)	4 (Herbicidal rate of 70% or more and less than 90%)	5 (Herbicidal rate of 90% or more (almost completely withered))	0 (Herbicidal rate of 5% or less (almost no effect))	5 (Herbicidal rate of 90% or more (almost completely withered))	4 (Herbicidal rate of 70% or more and less than 90%)	0 (Herbicidal rate of 5% or less (almost no effect))	4 (Herbicidal rate of 70% or more and less than 90%)	4 (Herbicidal rate of 70% or more and less than 90%)

— US20230085307A1, “PYRIDAZINONE COMPOUND AND HERBICIDE” (NISSAN CHEMICAL CORPORATION, priority 2019, published 2023)
